US12702691B2, “Extract of an herbal composition as antimicrobial and/or antibiofilm agent” (ALPHANOSOS S.A.S., priority 2016, dated 2026)

Tests used:
B-A21 = assay: Planktonic growth with extract and antibiotic relative to growth without both (Example 14); type: cell-based
Protocol: (§1) Starting from the herbal composition, the corresponding water extracts (or processed samples) was prepared according to the previously described Method B using 2.06 g of the above herbal composition with 40 mL water with 100 g/L sucrose for water extraction and including the decantation step before filtration. In an independent water extract preparation without sucrose, it has been measured that 2.06 g/40 mL of herbal composition corresponds to 14.5 g/L as deduced from the weight of the lyophilized dry herbal extract.
(§2) In Example 14 we calculate the growth of the bacteria in presence of antibiotic and/or herbal mix relative to the growth in the absence of both antibiotic and herbal mix extract.

B-A17 = assay: as above; type: cell-based
Protocol: as §1, §2

[1] = M[20C]-576 0 μg/mL, antibiotic 3.91 μg/mL
[2] = M[20C]-576 0 μg/mL, antibiotic 7.81 μg/mL
[3] = M[20C]-576 0 μg/mL, antibiotic 15.63 μg/mL
[4] = M[20C]-576 0 μg/mL, antibiotic 31.25 μg/mL
[5] = M[20C]-576 0 μg/mL, antibiotic 62.50 μg/mL
[6] = M[20C]-576 0 μg/mL, antibiotic 125 μg/mL
[7] = M[20C]-576 0 μg/mL, antibiotic 250 μg/mL
[8] = M[20C]-576 0 μg/mL, antibiotic 500 μg/mL
[9] = M[20C]-576 0 μg/mL, antibiotic 1000 μg/mL
[10] = M[20C]-576 0 μg/mL, antibiotic 2000 μg/mL
[11] = M[20C]-576 0 μg/mL, antibiotic 4000 μg/mL
[12] = M[20C]-576 90.6 μg/mL, antibiotic 3.91 μg/mL
[13] = M[20C]-576 90.6 μg/mL, antibiotic 7.81 μg/mL
[14] = M[20C]-576 90.6 μg/mL, antibiotic 15.63 μg/mL
[15] = M[20C]-576 90.6 μg/mL, antibiotic 31.25 μg/mL
[16] = M[20C]-576 90.6 μg/mL, antibiotic 62.50 μg/mL
[17] = M[20C]-576 90.6 μg/mL, antibiotic 125 μg/mL
[18] = M[20C]-576 90.6 μg/mL, antibiotic 250 μg/mL
[19] = M[20C]-576 90.6 μg/mL, antibiotic 500 μg/mL
[20] = M[20C]-576 90.6 μg/mL, antibiotic 1000 μg/mL
[21] = M[20C]-576 90.6 μg/mL, antibiotic 2000 μg/mL
[22] = M[20C]-576 90.6 μg/mL, antibiotic 4000 μg/mL
[23] = M[20C]-576 181.3 μg/mL, antibiotic 3.91 μg/mL
[24] = M[20C]-576 181.3 μg/mL, antibiotic 7.81 μg/mL
[25] = M[20C]-576 181.3 μg/mL, antibiotic 15.63 μg/mL
[26] = M[20C]-576 181.3 μg/mL, antibiotic 31.25 μg/mL
[27] = M[20C]-576 181.3 μg/mL, antibiotic 62.50 μg/mL
[28] = M[20C]-576 181.3 μg/mL, antibiotic 125 μg/mL
[29] = M[20C]-576 181.3 μg/mL, antibiotic 250 μg/mL
[30] = M[20C]-576 181.3 μg/mL, antibiotic 500 μg/mL
[31] = M[20C]-576 181.3 μg/mL, antibiotic 1000 μg/mL
[32] = M[20C]-576 181.3 μg/mL, antibiotic 2000 μg/mL
[33] = M[20C]-576 181.3 μg/mL, antibiotic 4000 μg/mL

## Penicillin
B-A21; [1]
  planktonic growth relative to the growth in the absence of both extract and antibiotic: 135%
B-A21; [2]
  planktonic growth relative to the growth in the absence of both extract and antibiotic: 116%
B-A21; [3]
  planktonic growth relative to the growth in the absence of both extract and antibiotic: 115%
B-A21; [4]
  planktonic growth relative to the growth in the absence of both extract and antibiotic: 113%
B-A21; [5]
  planktonic growth relative to the growth in the absence of both extract and antibiotic: 108%
B-A21; [6]
  planktonic growth relative to the growth in the absence of both extract and antibiotic: 106%
B-A21; [7]
  planktonic growth relative to the growth in the absence of both extract and antibiotic: 101%
B-A21; [8]
  planktonic growth relative to the growth in the absence of both extract and antibiotic: 0%
B-A21; [9]
  planktonic growth relative to the growth in the absence of both extract and antibiotic: 0%
B-A21; [10]
  planktonic growth relative to the growth in the absence of both extract and antibiotic: 0%
B-A21; [11]
  planktonic growth relative to the growth in the absence of both extract and antibiotic: 0%
B-A21; [12]
  planktonic growth relative to the growth in the absence of both extract and antibiotic: 104%
B-A21; [13]
  planktonic growth relative to the growth in the absence of both extract and antibiotic: 83%
B-A21; [14]
  planktonic growth relative to the growth in the absence of both extract and antibiotic: 83%
B-A21; [15]
  planktonic growth relative to the growth in the absence of both extract and antibiotic: 84%
B-A21; [16]
  planktonic growth relative to the growth in the absence of both extract and antibiotic: 80%
B-A21; [17]
  planktonic growth relative to the growth in the absence of both extract and antibiotic: 74%
B-A21; [18]
  planktonic growth relative to the growth in the absence of both extract and antibiotic: 26%
B-A21; [19]
  planktonic growth relative to the growth in the absence of both extract and antibiotic: 0%
B-A21; [20]
  planktonic growth relative to the growth in the absence of both extract and antibiotic: 0%
B-A21; [21]
  planktonic growth relative to the growth in the absence of both extract and antibiotic: 0%
B-A21; [22]
  planktonic growth relative to the growth in the absence of both extract and antibiotic: 0%
B-A21; [23]
  planktonic growth relative to the growth in the absence of both extract and antibiotic: 62%
B-A21; [24]
  planktonic growth relative to the growth in the absence of both extract and antibiotic: 43%
B-A21; [25]
  planktonic growth relative to the growth in the absence of both extract and antibiotic: 70%
B-A21; [26]
  planktonic growth relative to the growth in the absence of both extract and antibiotic: 61%
B-A21; [27]
  planktonic growth relative to the growth in the absence of both extract and antibiotic: 60%
B-A21; [28]
  planktonic growth relative to the growth in the absence of both extract and antibiotic: 45%
B-A21; [29]
  planktonic growth relative to the growth in the absence of both extract and antibiotic: −3%
B-A21; [30]
  planktonic growth relative to the growth in the absence of both extract and antibiotic: −3%
B-A21; [31]
  planktonic growth relative to the growth in the absence of both extract and antibiotic: −3%
B-A21; [32]
  planktonic growth relative to the growth in the absence of both extract and antibiotic: −3%
B-A21; [33]
  planktonic growth relative to the growth in the absence of both extract and antibiotic: −3%
B-A17; [1]
  planktonic growth relative to the growth in the absence of both extract and antibiotic: 137%
B-A17; [2]
  planktonic growth relative to the growth in the absence of both extract and antibiotic: 138%
B-A17; [3]
  planktonic growth relative to the growth in the absence of both extract and antibiotic: 3%
B-A17; [4]
  planktonic growth relative to the growth in the absence of both extract and antibiotic: 1%
B-A17; [5]
  planktonic growth relative to the growth in the absence of both extract and antibiotic: 0%
B-A17; [6]
  planktonic growth relative to the growth in the absence of both extract and antibiotic: −1%
B-A17; [7]
  planktonic growth relative to the growth in the absence of both extract and antibiotic: 0%
B-A17; [8]
  planktonic growth relative to the growth in the absence of both extract and antibiotic: 0%
B-A17; [9]
  planktonic growth relative to the growth in the absence of both extract and antibiotic: 0%
B-A17; [10]
  planktonic growth relative to the growth in the absence of both extract and antibiotic: 0%
B-A17; [11]
  planktonic growth relative to the growth in the absence of both extract and antibiotic: 0%
B-A17; [12]
  planktonic growth relative to the growth in the absence of both extract and antibiotic: 39%
B-A17; [13]
  planktonic growth relative to the growth in the absence of both extract and antibiotic: 25%
B-A17; [14]
  planktonic growth relative to the growth in the absence of both extract and antibiotic: 1%
B-A17; [15]
  planktonic growth relative to the growth in the absence of both extract and antibiotic: 0%
B-A17; [16]
  planktonic growth relative to the growth in the absence of both extract and antibiotic: 0%
B-A17; [17]
  planktonic growth relative to the growth in the absence of both extract and antibiotic: 0%
B-A17; [18]
  planktonic growth relative to the growth in the absence of both extract and antibiotic: 0%
B-A17; [19]
  planktonic growth relative to the growth in the absence of both extract and antibiotic: 0%
B-A17; [20]
  planktonic growth relative to the growth in the absence of both extract and antibiotic: 0%
B-A17; [21]
  planktonic growth relative to the growth in the absence of both extract and antibiotic: 0%
B-A17; [22]
  planktonic growth relative to the growth in the absence of both extract and antibiotic: 0%
B-A17; [23]
  planktonic growth relative to the growth in the absence of both extract and antibiotic: 23%
B-A17; [24]
  planktonic growth relative to the growth in the absence of both extract and antibiotic: 5%
B-A17; [25]
  planktonic growth relative to the growth in the absence of both extract and antibiotic: −3%
B-A17; [26]
  planktonic growth relative to the growth in the absence of both extract and antibiotic: −3%
B-A17; [27]
  planktonic growth relative to the growth in the absence of both extract and antibiotic: −3%
B-A17; [28]
  planktonic growth relative to the growth in the absence of both extract and antibiotic: −3%
B-A17; [29]
  planktonic growth relative to the growth in the absence of both extract and antibiotic: −2%
B-A17; [30]
  planktonic growth relative to the growth in the absence of both extract and antibiotic: −3%
B-A17; [31]
  planktonic growth relative to the growth in the absence of both extract and antibiotic: −4%
B-A17; [32]
  planktonic growth relative to the growth in the absence of both extract and antibiotic: −4%
B-A17; [33]
  planktonic growth relative to the growth in the absence of both extract and antibiotic: −2%
